Measurements published in ChEMBL document CHEMBL1201862, “PubChem BioAssay data set” (2004).
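Dose response: 5 concentrations. Exposure: 48 h. Format: 96-well plates. Endpoint: linear interpolation; highest concentration if not reached. Here, GI50 denotes the concentration required for 50% inhibition of growth.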 The source made the active and inactive calls. Cut-off read from the data, not from the text of the source: active = GI50 up to about 1.1 µM and inactive = higher.

Assays:
Assay in all cases: DTP human tumour cell line panel, 48 h
[1] = system: A549
[2] = system: EKVX
[3] = system: HOP-92
[4] = system: IGROV-1
[5] = system: M14
[6] = system: MDA-MB-435
[7] = system: Malme-3M
[8] = system: NCI-H23
[9] = system: NCI-H522
[10] = system: NCI/ADR-RES
[11] = system: OVCAR-3
[12] = system: SF-268
[13] = system: SF-295
[14] = system: SF-539
[15] = system: SN12C
[16] = system: SNB-75
[17] = system: UACC-62
[18] = system: HCC 2998
[19] = system: LOX IMVI
[20] = system: SR

Compound | GI50 [1] | GI50 [2] | GI50 [3] | GI50 [4] | GI50 [5] | GI50 [6] | GI50 [7] | GI50 [8] | GI50 [9] | GI50 [10] | GI50 [11] | GI50 [12] | GI50 [13] | GI50 [14] | GI50 [15] | GI50 [16] | GI50 [17] | GI50 [18] | GI50 [19] | GI50 [20]
Cc1cc([N+](=O)[O-])c(C)c(Br)c1C | > 100 µM (inactive) | 70.8 µM (inactive) | 62.2 µM (inactive) | > 100 µM (inactive) | > 100 µM (inactive) | > 100 µM (inactive) | > 100 µM (inactive) | > 100 µM (inactive) | > 100 µM (inactive) | > 100 µM (inactive) | > 100 µM (inactive) | > 100 µM (inactive) | > 100 µM (inactive) | > 100 µM (inactive) | > 100 µM (inactive) | 25.2 µM (inactive) | > 100 µM (inactive) |  |  | 
N#CC1=C2Sc3ccccc3N2[C@H](c2ccccc2)[C@H]2COC(=O)[C@@H]12 | > 100 µM (inactive) | > 100 µM (inactive) | > 100 µM (inactive) |  | 52.4 µM (inactive) | > 100 µM (inactive) | 16.7 µM (inactive) | 77.3 µM (inactive) | 11.2 µM (inactive) | > 100 µM (inactive) | > 100 µM (inactive) | 17.1 µM (inactive) | > 100 µM (inactive) | > 100 µM (inactive) |  | 21.6 µM (inactive) | 67.1 µM (inactive) | > 100 µM (inactive) | 26.3 µM (inactive) | 
COc1ccc(-c2csc(Cc3nc4c(Br)cc(Br)cc4c(=O)n3-c3ccc(OC)cc3)n2)cc1 | 63.2 µM (inactive) | > 100 µM (inactive) | > 100 µM (inactive) | 73.3 µM (inactive) | 20.9 µM (inactive) | 15.9 µM (inactive) |  | 96.2 µM (inactive) |  | 50.9 µM (inactive) | > 100 µM (inactive) |  | 59.4 µM (inactive) |  |  | > 100 µM (inactive) | 53.3 µM (inactive) | > 100 µM (inactive) | > 100 µM (inactive) | 
CCCCCCCC(CC(=O)NC(CO)C(=O)NC(CO)CC(C)C)OC(=O)CC(CCCCCCC)OC(=O)CC(CCCCCCC)OC1OC(C)C(O)C(OC2OC(C)C(O)C(OC(C)=O)C2O)C1O (stereo not given) | 12.5 µM (inactive) | 15.3 µM (inactive) | 10.9 µM (inactive) | 12.3 µM (inactive) | 10.7 µM (inactive) | 11 µM (inactive) | 16 µM (inactive) | 14.2 µM (inactive) | 15 µM (inactive) |  | 10.7 µM (inactive) | 12 µM (inactive) | 15.8 µM (inactive) | 12.1 µM (inactive) | 7.05 µM (inactive) | 5.56 µM (inactive) | 12.9 µM (inactive) | 11.2 µM (inactive) |  | 3.27 µM (inactive)
COc1cc2oc(-c3ccc4c(c3)OCO4)c(OC)c(=O)c2c(OC)c1O | 48.1 µM (inactive) | 37.6 µM (inactive) | 13.6 µM (inactive) | 37.5 µM (inactive) | > 100 µM (inactive) | 70.3 µM (inactive) | > 100 µM (inactive) | > 100 µM (inactive) | 21.9 µM (inactive) | 66.8 µM (inactive) | 44.2 µM (inactive) | 27.9 µM (inactive) | 41.7 µM (inactive) | > 100 µM (inactive) | 71.8 µM (inactive) | 33.2 µM (inactive) | 54.3 µM (inactive) | 70.5 µM (inactive) | 32.7 µM (inactive) | 
O=C(Cn1c2c(c3ccccc31)CCCC2)N1CCOCC1 | > 100 µM (inactive) | > 100 µM (inactive) | > 100 µM (inactive) | > 100 µM (inactive) | > 100 µM (inactive) | > 100 µM (inactive) | > 100 µM (inactive) | > 100 µM (inactive) |  | > 100 µM (inactive) | > 100 µM (inactive) | > 100 µM (inactive) | > 100 µM (inactive) | > 100 µM (inactive) | > 100 µM (inactive) |  | > 100 µM (inactive) | > 100 µM (inactive) | > 100 µM (inactive) | 
O=C(N[C@@H](c1ccccc1)[C@@H](O)C(=O)OCc1ccc([N+](=O)[O-])cc1)c1ccccc1 | > 100 µM (inactive) | > 100 µM (inactive) | > 100 µM (inactive) | > 100 µM (inactive) |  | > 100 µM (inactive) | > 100 µM (inactive) | > 100 µM (inactive) | > 100 µM (inactive) | > 100 µM (inactive) | > 100 µM (inactive) | > 100 µM (inactive) | > 10 µM (inactive) | > 100 µM (inactive) | > 100 µM (inactive) | 44.1 µM (inactive) | > 100 µM (inactive) | > 100 µM (inactive) | > 100 µM (inactive) | 
CC(C)OCN/C(N)=N\C#N | > 100 µM (inactive) | > 100 µM (inactive) | > 100 µM (inactive) | > 100 µM (inactive) | > 100 µM (inactive) |  | > 100 µM (inactive) | > 100 µM (inactive) | > 100 µM (inactive) |  | > 100 µM (inactive) | > 100 µM (inactive) | > 100 µM (inactive) | > 100 µM (inactive) | > 100 µM (inactive) | > 100 µM (inactive) | > 100 µM (inactive) | > 100 µM (inactive) | 20.5 µM (inactive) | 10.8 µM (inactive)
NS(=O)(=O)c1ccccc1C(=O)N/N=C(\c1nc2ccc([N+](=O)[O-])cc2[nH]c1=O)C(O)c1ccc([N+](=O)[O-])cc1 (stereo not given) | > 100 µM (inactive) | > 100 µM (inactive) | > 100 µM (inactive) | > 100 µM (inactive) | > 100 µM (inactive) |  | > 100 µM (inactive) | > 100 µM (inactive) | 10.6 µM (inactive) |  | > 100 µM (inactive) | > 100 µM (inactive) | > 100 µM (inactive) | 49.2 µM (inactive) | > 100 µM (inactive) | > 100 µM (inactive) | 52.2 µM (inactive) | > 100 µM (inactive) | 84.1 µM (inactive) | > 100 µM (inactive)
Clc1ccc(C2ON=C(c3ccccc3)N2C23CC4CC(CC(C4)C2)C3)cc1Cl (stereo not given) | > 10 µM (inactive) | > 10 µM (inactive) | 7.13 µM (inactive) | > 10 µM (inactive) | > 10 µM (inactive) | > 10 µM (inactive) | > 10 µM (inactive) | > 10 µM (inactive) | > 10 µM (inactive) | > 10 µM (inactive) | > 10 µM (inactive) | > 10 µM (inactive) | > 10 µM (inactive) | > 10 µM (inactive) | > 10 µM (inactive) | > 10 µM (inactive) | > 10 µM (inactive) | > 10 µM (inactive) | > 10 µM (inactive) | 
CC(C(O)Cc1ccccc1)N(C)/N=N/c1ccc([N+](=O)[O-])cc1 (stereo not given) | 23.1 µM (inactive) | 22.9 µM (inactive) |  | 19.4 µM (inactive) | 16.8 µM (inactive) | 18.9 µM (inactive) | 22.2 µM (inactive) | 20.1 µM (inactive) |  | 18.8 µM (inactive) | 14.8 µM (inactive) | 21 µM (inactive) | 19.8 µM (inactive) |  | 22 µM (inactive) | 23.1 µM (inactive) | 18.8 µM (inactive) | 16.7 µM (inactive) |  | 
CC(=O)O[C@H]1CCC2[C@@H]3CCC4Cc5nc6c(nc5C[C@]4(C)C3CC[C@@]21C)CC1CC[C@@H]2C(CC[C@@]3(C)C2CC[C@@H]3C(C)CCCC(C)C)[C@@]1(C)C6 (stereo not given in full) | > 100 µM (inactive) | > 100 µM (inactive) | > 100 µM (inactive) | > 100 µM (inactive) | > 100 µM (inactive) | > 100 µM (inactive) | > 100 µM (inactive) | > 100 µM (inactive) |  | > 100 µM (inactive) | > 100 µM (inactive) | > 100 µM (inactive) | > 100 µM (inactive) | > 100 µM (inactive) | > 100 µM (inactive) | > 100 µM (inactive) | > 100 µM (inactive) |  | > 100 µM (inactive) | 
O=c1c(-c2ccccc2Cl)coc2cc(F)ccc12 | 23.7 µM (inactive) | 52.6 µM (inactive) | 18.6 µM (inactive) | 6.07 µM (inactive) | 14.3 µM (inactive) | 2.1 µM (inactive) |  | 37.3 µM (inactive) | 10.6 µM (inactive) | 19.5 µM (inactive) | 30.7 µM (inactive) | 40.7 µM (inactive) | 19.4 µM (inactive) | 11.9 µM (inactive) | 53.2 µM (inactive) | 17.5 µM (inactive) | 18.2 µM (inactive) |  | 13.2 µM (inactive) | 
CC(C)(C)CC(C)(C)NCC(O)COc1ccc(C(C)(C)c2ccc(OCC(O)CNC(C)(C)CC(C)(C)C)cc2)cc1 (stereo not given) | 1.6 µM (inactive) | 1.72 µM (inactive) | 1.78 µM (inactive) | 1.77 µM (inactive) | 0.279 µM (active) |  | 1.59 µM (inactive) | 1.76 µM (inactive) | 1.61 µM (inactive) |  | 1.77 µM (inactive) | 1.86 µM (inactive) | 1.68 µM (inactive) | 1.86 µM (inactive) | 1.63 µM (inactive) | 1.6 µM (inactive) | 1.81 µM (inactive) | 0.349 µM (active) | 0.429 µM (active) | 0.366 µM (active)
O=c1[nH]nc(Cc2ccccc2)n1/N=C/c1ccccc1O | > 100 µM (inactive) | > 100 µM (inactive) | 53.7 µM (inactive) | 83.8 µM (inactive) | > 100 µM (inactive) | > 100 µM (inactive) | > 100 µM (inactive) | > 100 µM (inactive) | > 100 µM (inactive) | > 100 µM (inactive) | > 100 µM (inactive) | 50.1 µM (inactive) | 57.7 µM (inactive) | > 100 µM (inactive) | > 100 µM (inactive) |  | > 100 µM (inactive) | > 100 µM (inactive) | > 100 µM (inactive) | 
